Experimental data: the supplement of paper PMC10307832

Experiments:
Experiment in all cases: relative viability (nuclei count vs DMSO), 5 days (fraction); higher = more cells survive
[1] = compound: CN(c1ncccc1CNc1nc(Nc2ccc3c(c2)CC(=O)N3)ncc1C(F)(F)F)S(C)(=O)=O + CC(=O)c1c(C)c2cnc(Nc3ccc(N4CCNCC4)cn3)nc2n(C2CCCC2)c1=O [Palbociclib] (partner 0.5 µM)
In short: (§1)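 Dosing by pin tool came one day after lung cancer cell lines were seeded in 1536-well plates, using either one drug or a fixed anchor-drug dose plus five library-drug doses (not always all listed) in √10 steps. After 5 days, nuclei were counted on 4× images. Relative viability is treated-well nuclei count divided by vehicle-well nuclei count, and values are medians of duplicate plates.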

[2] = compound: CN(c1ncccc1CNc1nc(Nc2ccc3c(c2)CC(=O)N3)ncc1C(F)(F)F)S(C)(=O)=O + CCNC(=O)c1noc(-c2cc(C(C)C)c(O)cc2O)c1-c1ccc(CN2CCOCC2)cc1 [Luminespib] (partner 0.01 µM)
In short: as §1

[3] = compound: CN(c1ncccc1CNc1nc(Nc2ccc3c(c2)CC(=O)N3)ncc1C(F)(F)F)S(C)(=O)=O + COc1cccc2cc(-c3nc([C@H]4CC[C@H](C(=O)O)CC4)n4ncnc(N)c34)[nH]c12 [OSI-027] (partner 0.5 µM)
In short: as §1

[4] = compound: CN(c1ncccc1CNc1nc(Nc2ccc3c(c2)CC(=O)N3)ncc1C(F)(F)F)S(C)(=O)=O + CS(=O)(=O)N1CCN(Cc2cc3nc(-c4cccc5[nH]ncc45)nc(N4CCOCC4)c3s2)CC1 [Pictilisib] (partner 1 µM)
In short: as §1

Cell Line | relative viability ([1]; first compound 0.01 µM) | relative viability ([1]; first compound 0.03162 µM) | relative viability ([1]; first compound 0.1 µM) | relative viability ([1]; first compound 0.3162 µM) | relative viability ([1]; first compound 1 µM) | relative viability ([2]; first compound 0.01 µM) | relative viability ([2]; first compound 0.03162 µM) | relative viability ([2]; first compound 0.1 µM) | relative viability ([2]; first compound 0.3162 µM) | relative viability ([2]; first compound 1 µM) | relative viability ([3]; first compound 0.01 µM) | relative viability ([3]; first compound 0.03162 µM) | relative viability ([3]; first compound 0.1 µM) | relative viability ([3]; first compound 0.3162 µM) | relative viability ([3]; first compound 1 µM) | relative viability ([4]; first compound 0.01 µM) | relative viability ([4]; first compound 0.03162 µM) | relative viability ([4]; first compound 0.1 µM) | relative viability ([4]; first compound 0.3162 µM) | relative viability ([4]; first compound 1 µM)
CAL-12T | 0.44 | 0.341 | 0.416 | 0.407 | 0.366 | 0.284 | 0.55 | 0.451 | 0.258 | 0.277 | 0.725 | 0.874 | 0.58 | 0.719 | 0.514 | 0.43 | 0.305 | 0.28 | 0.318 | 0.498
COR-L23 | 0.265 | 0.262 | 0.308 | 0.239 | 0.234 | 0.622 | 1 | 0.656 | 0.734 | 0.41 | 0.782 | 0.722 | 0.681 | 0.756 | 0.642 | 0.793 | 0.824 | 0.922 | 0.874 | 0.585
NCI-H1755 | 0.449 | 0.473 | 0.452 | 0.44 | 0.434 | 0.531 | 0.41 | 0.479 | 0.389 | 0.419 | 0.708 | 0.789 | 0.737 | 0.678 | 0.699 | 0.436 | 0.417 | 0.426 | 0.477 | 0.451
NCI-H1437 | 0.348 | 0.297 | 0.265 | 0.269 | 0.209 | 1.14 | 1.16 | 1.12 | 0.993 | 0.687 | 0.96 | 0.929 | 0.917 | 0.876 | 0.773 | 0.424 | 0.468 | 0.557 | 0.41 | 0.546
NCI-H2085 | 0.444 | 0.467 | 0.443 | 0.462 | 0.401 | 0.394 | 0.681 | 0.457 | 0.418 | 0.36 | 0.77 | 0.907 | 0.735 | 0.734 | 0.749 | 0.449 | 0.49 | 0.624 | 0.469 | 0.515
H3255 | 0.312 | 0.316 | 0.345 | 0.327 | 0.295 | 1.03 | 0.963 | 0.796 | 0.933 | 0.904 | 0.606 | 0.611 | 0.488 | 0.568 | 0.598 | 0.422 | 0.537 | 0.413 | 0.505 | 0.382
NCI-H650 | 0.324 | 0.32 | 0.307 | 0.266 | 0.3 | 0.773 | 0.779 | 0.655 | 0.728 | 0.654 | 0.401 | 0.555 | 0.408 | 0.455 | 0.465 | 0.961 | 1.15 | 0.671 | 0.639 | 0.842
LCLC-103H | 0.499 | 0.428 | 0.5 | 0.471 | 0.484 | 0.754 | 0.927 | 0.918 | 0.892 | 0.752 | 0.497 | 0.399 | 0.422 | 0.448 | 0.424 | 0.558 | 0.561 | 0.6 | 0.536 | 0.577
LOU-NH91 | 0.521 | 0.512 | 0.534 | 0.52 | 0.492 | 0.322 | 0.366 | 0.313 | 0.351 | 0.355 | 0.714 | 0.82 | 0.685 | 0.823 | 0.801 | 0.519 | 0.548 | 0.504 | 0.551 | 0.575
NCI-H1650 | 0.291 | 0.31 | 0.367 | 0.321 | 0.304 | 0.203 | 0.207 | 0.194 | 0.193 | 0.198 | 0.64 | 0.727 | 0.701 | 0.612 | 0.645 | 0.557 | 0.676 | 0.609 | – | 0.581
NCI-H3122 | 0.204 | 0.188 | 0.155 | 0.202 | 0.149 | 0.0983 | 0.101 | 0.0795 | 0.0863 | 0.0795 | 0.976 | 1.07 | 0.762 | 1.06 | 0.954 | 0.599 | 0.673 | 0.627 | 0.572 | 0.584
PC-3 [JPC-3] | 0.606 | – | 0.529 | 0.453 | 0.455 | 0.719 | 0.788 | 0.792 | 0.665 | 0.636 | 0.722 | 0.742 | 0.739 | 0.805 | 0.768 | 0.747 | 0.723 | 0.75 | 0.782 | 0.71
NCI-H1651 | 0.527 | 0.529 | 0.529 | 0.487 | 0.5 | 1.03 | 0.957 | 0.708 | 0.688 | 0.667 | 0.802 | 0.794 | 0.738 | 0.796 | 0.739 | 0.523 | 0.617 | 0.601 | 0.596 | 0.546
NCI-H2087 | 0.23 | 0.277 | 0.258 | 0.252 | 0.279 | 0.164 | 0.239 | 0.162 | 0.185 | 0.185 | 0.513 | 0.766 | 0.594 | 0.659 | 0.585 | 0.852 | 0.77 | 0.978 | 0.914 | 0.951
